# Source: patent US10760110B2, “Antibiotic testing and screening system” (priority 2017, dated 2020)
# Like-named read-outs stand apart in the source and are kept apart here.
# Legend:
# Conditions in all cases: Klebsiella pneumoniae
# [1] = tested on: K. pneumoniae NVT1001 and its ΔompK35/36 and/or ΔramR mutants; experiment: Etest MIC, OmpK35/36 loss and AcrAB-TolC overexpression (ΔramR) strains (Table 6); assay type: cell-based, Klebsiella pneumoniae
# In short: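 MICs were read by Etest strip following the manufacturer's instructions, and values falling between standard two-fold dilutions were rounded up to the next two-fold step. Ceftazidime and cefotaxime were also tested by CLSI broth microdilution and interpreted against CLSI 2017 breakpoints; cephalothin used CLSI 2015 and moxifloxacin EUCAST 2017.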
# [2] = tested on: K. pneumoniae NVT1001 strains with carbapenemase plasmids; experiment: Etest MIC of β-lactams, OmpK35/36 loss, ΔramR and/or carbapenemase (Table 9); assay type: cell-based, Klebsiella pneumoniae
# In short: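 Cloned resistance genes in pACYC177 or pACYC184 were electroporated into K. pneumoniae NVT1001. MICs were determined by Etest and rounded up to the next two-fold value. Ceftazidime and cefotaxime against the blaOXA-48 construct were also tested by CLSI broth microdilution, with breakpoints from CLSI 2017 (cephalothin CLSI 2015, moxifloxacin EUCAST 2017).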
# [3] = tested on: K. pneumoniae NVT1001 ΔramRΔompK35/36 mutant and its revertants; experiment: Etest MIC, ΔramRΔompK35/36 mutant and its revertants (Table 7); assay type: cell-based
smiles,measurement,setting,value
CO/N=C(\C(=O)N[C@@H]1C(=O)N2C(C(=O)O)=C(COC(N)=O)CS[C@H]12)c1ccco1 [Cefuroxime],MIC,"[1]; WT, NVT1001, read-out: MIC",4 µg/mL
same,MIC,"[1]; Δ35, ΔompK35 mutant",8 µg/mL
same,MIC,"[1]; Δ35/36, ΔompK35/36 mutant",32 µg/mL
same,MIC,"[1]; Δ36, ΔompK36 mutant",16 µg/mL
same,MIC,[1]; ΔramR mutant,32 µg/mL
same,MIC,"[1]; ΔramRΔ35, ΔramRΔompK35 mutant",64 µg/mL
same,MIC,"[1]; ΔramRΔ35/36, ΔramRΔompK35/36 mutant",128 µg/mL
same,MIC,"[1]; ΔramRΔ36, ΔramRΔompK36 mutant",> 256 µg/mL
same,MIC,"[2]; IMP-8 on pACYC177, WT (NVT1001), read-out: MIC",> 256 µg/mL
same,MIC,"[2]; IMP-8 on pACYC177, Δ35 (ΔompK35 mutant)",> 256 µg/mL
same,MIC,"[2]; IMP-8 on pACYC177, Δ35/36 (ΔompK35/36 mutant)",> 256 µg/mL
same,MIC,"[2]; IMP-8 on pACYC177, Δ36 (ΔompK36 mutant)",> 256 µg/mL
same,MIC,"[2]; IMP-8 on pACYC177, ΔramR mutant",> 256 µg/mL
same,MIC,"[2]; IMP-8 on pACYC177, ΔramRΔ35 (ΔramRΔompK35 mutant)",> 256 µg/mL
same,MIC,"[2]; IMP-8 on pACYC177, ΔramRΔ35/36 (ΔramRΔompK35/36 mutant)",> 256 µg/mL
same,MIC,"[2]; IMP-8 on pACYC177, ΔramRΔ36 (ΔramRΔompK36 mutant)",> 256 µg/mL
same,MIC,"[2]; KPC-2 on pACYC177, WT (NVT1001), read-out: MIC",> 256 µg/mL
same,MIC,"[2]; KPC-2 on pACYC177, Δ35 (ΔompK35 mutant)",> 256 µg/mL
same,MIC,"[2]; KPC-2 on pACYC177, Δ35/36 (ΔompK35/36 mutant)",> 256 µg/mL
same,MIC,"[2]; KPC-2 on pACYC177, Δ36 (ΔompK36 mutant)",> 256 µg/mL
same,MIC,"[2]; KPC-2 on pACYC177, ΔramR mutant",> 256 µg/mL
same,MIC,"[2]; KPC-2 on pACYC177, ΔramRΔ35 (ΔramRΔompK35 mutant)",> 256 µg/mL
same,MIC,"[2]; KPC-2 on pACYC177, ΔramRΔ35/36 (ΔramRΔompK35/36 mutant)",> 256 µg/mL
same,MIC,"[2]; KPC-2 on pACYC177, ΔramRΔ36 (ΔramRΔompK36 mutant)",> 256 µg/mL
same,MIC,"[2]; KPC-3 on pACYC177, WT (NVT1001), read-out: MIC",> 256 µg/mL
same,MIC,"[2]; KPC-3 on pACYC177, Δ35 (ΔompK35 mutant)",> 256 µg/mL
same,MIC,"[2]; KPC-3 on pACYC177, Δ35/36 (ΔompK35/36 mutant)",> 256 µg/mL
same,MIC,"[2]; KPC-3 on pACYC177, Δ36 (ΔompK36 mutant)",> 256 µg/mL
same,MIC,"[2]; KPC-3 on pACYC177, ΔramR mutant",> 256 µg/mL
same,MIC,"[2]; KPC-3 on pACYC177, ΔramRΔ35 (ΔramRΔompK35 mutant)",> 256 µg/mL
same,MIC,"[2]; KPC-3 on pACYC177, ΔramRΔ35/36 (ΔramRΔompK35/36 mutant)",> 256 µg/mL
same,MIC,"[2]; KPC-3 on pACYC177, ΔramRΔ36 (ΔramRΔompK36 mutant)",> 256 µg/mL
same,MIC,"[2]; NDM-1 on pACYC177, WT (NVT1001), read-out: MIC",> 256 µg/mL
same,MIC,"[2]; NDM-1 on pACYC177, Δ35 (ΔompK35 mutant)",> 256 µg/mL
same,MIC,"[2]; NDM-1 on pACYC177, Δ35/36 (ΔompK35/36 mutant)",> 256 µg/mL
same,MIC,"[2]; NDM-1 on pACYC177, Δ36 (ΔompK36 mutant)",> 256 µg/mL
same,MIC,"[2]; NDM-1 on pACYC177, ΔramR mutant",> 256 µg/mL
same,MIC,"[2]; NDM-1 on pACYC177, ΔramRΔ35 (ΔramRΔompK35 mutant)",> 256 µg/mL
same,MIC,"[2]; NDM-1 on pACYC177, ΔramRΔ35/36 (ΔramRΔompK35/36 mutant)",> 256 µg/mL
same,MIC,"[2]; NDM-1 on pACYC177, ΔramRΔ36 (ΔramRΔompK36 mutant)",> 256 µg/mL
same,MIC,"[2]; OXA-48 on pACYC177, WT (NVT1001), read-out: MIC",8 µg/mL
same,MIC,"[2]; OXA-48 on pACYC177, Δ35 (ΔompK35 mutant)",16 µg/mL
same,MIC,"[2]; OXA-48 on pACYC177, Δ35/36 (ΔompK35/36 mutant)",128 µg/mL
same,MIC,"[2]; OXA-48 on pACYC177, Δ36 (ΔompK36 mutant)",32 µg/mL
same,MIC,"[2]; OXA-48 on pACYC177, ΔramR mutant",64 µg/mL
same,MIC,"[2]; OXA-48 on pACYC177, ΔramRΔ35 (ΔramRΔompK35 mutant)",64 µg/mL
same,MIC,"[2]; OXA-48 on pACYC177, ΔramRΔ35/36 (ΔramRΔompK35/36 mutant)",> 256 µg/mL
same,MIC,"[2]; OXA-48 on pACYC177, ΔramRΔ36 (ΔramRΔompK36 mutant)",> 256 µg/mL
same,MIC,"[2]; VIM-1 on pACYC177, WT (NVT1001), read-out: MIC",> 256 µg/mL
same,MIC,"[2]; VIM-1 on pACYC177, Δ35 (ΔompK35 mutant)",> 256 µg/mL
same,MIC,"[2]; VIM-1 on pACYC177, Δ35/36 (ΔompK35/36 mutant)",> 256 µg/mL
same,MIC,"[2]; VIM-1 on pACYC177, Δ36 (ΔompK36 mutant)",> 256 µg/mL
same,MIC,"[2]; VIM-1 on pACYC177, ΔramR mutant",> 256 µg/mL
same,MIC,"[2]; VIM-1 on pACYC177, ΔramRΔ35 (ΔramRΔompK35 mutant)",> 256 µg/mL
same,MIC,"[2]; VIM-1 on pACYC177, ΔramRΔ35/36 (ΔramRΔompK35/36 mutant)",> 256 µg/mL
same,MIC,"[2]; VIM-1 on pACYC177, ΔramRΔ36 (ΔramRΔompK36 mutant)",> 256 µg/mL
same,MIC,"[2]; no supplemental plasmid, WT (NVT1001), read-out: MIC",4 µg/mL
same,MIC,"[2]; no supplemental plasmid, Δ35 (ΔompK35 mutant)",8 µg/mL
same,MIC,"[2]; no supplemental plasmid, Δ35/36 (ΔompK35/36 mutant)",32 µg/mL
same,MIC,"[2]; no supplemental plasmid, Δ36 (ΔompK36 mutant)",16 µg/mL
same,MIC,"[2]; no supplemental plasmid, ΔramR mutant",32 µg/mL
same,MIC,"[2]; no supplemental plasmid, ΔramRΔ35 (ΔramRΔompK35 mutant)",64 µg/mL
same,MIC,"[2]; no supplemental plasmid, ΔramRΔ35/36 (ΔramRΔompK35/36 mutant)",128 µg/mL
same,MIC,"[2]; no supplemental plasmid, ΔramRΔ36 (ΔramRΔompK36 mutant)",> 256 µg/mL
same,MIC,[3]; ΔramRΔompK35/36::ompK35/36 revertant,32 µg/mL
same,MIC,[3]; ΔramRΔompK35/36::ompK35 revertant,> 256 µg/mL
same,MIC,[3]; ΔramRΔompK35/36::ompK36 revertant,32 µg/mL
same,MIC,[3]; ΔramRΔompK35/36::ramR revertant,32 µg/mL
same,MIC,[3]; ΔramRΔompK35/36::ramR::ompK35/36 revertant,4 µg/mL
same,MIC,[3]; ΔramRΔompK35/36::ramR::ompK35 revertant,16 µg/mL
same,MIC,[3]; ΔramRΔompK35/36::ramR::ompK36 revertant,8 µg/mL
same,MIC,[3]; ΔramRΔompK35/36 mutant,128 µg/mL
